Laboratory results taken from article PMC9851200, “Multiparameter phenotypic screening for endogenous TFEB and TFE3 translocation identifies novel chemical series modulating lysosome function” (Autophagy, 2022).
Entries after “also recorded” stand apart in the source; their conditions may differ.

Legend:
endogenous TFE3 = test: TFE3 nuclear translocation, immunocytochemistry high-content imaging; format: cell-based; settings: for TFE3 %: PKIS2 primary screening
SH-SY5Y cells [1] = test: AK (adenylate kinase) release ToxiLight cytotoxicity assay; settings: for AK: PKIS2 primary screening
Procedure: Total cell lysis with 5 µL 5% Triton-X 100 (Sigma-Aldrich, T8787) is used as a positive control for the assay and toxicity is expressed as a percentage of luminescence under DMSO conditions.

SH-SY5Y cells [2] = settings: for DQ Intensity / DQ Spot: PKIS2 primary screening; for DQ Intensity: DQ Red BSA intensity; for DQ Spot: DQ Red BSA spot count
Source text: The PKIS2 Library was supplied by The Structural Genomics Consortium at the University of North Carolina at Chapel Hill.

SH-SY5Y cells [3] = test: Nuclear count from microscopy images (cellular growth and toxicity); settings: PKIS2 primary screening
SH-SY5Y cells [4] = test: Chemotype enrichment analysis of PKIS2 primary screen hit categories; settings: PKIS2 primary screening, hit category
endogenous TFEB = test: TFEB nuclear translocation, immunocytochemistry high-content imaging; format: cell-based; settings: for TFEB %: PKIS2 primary screening

| SMILES | TFE3 % (endogenous TFE3) [%] | AK (SH-SY5Y cells [1]) | DQ Intensity (SH-SY5Y cells [2]) | DQ Spot (SH-SY5Y cells [2]) | Nuclear Count (SH-SY5Y cells [3]) | Outcome (SH-SY5Y cells [4]) | TFEB % (endogenous TFEB) [%] | TFE3 translocation (in words) (endogenous TFE3; SH-SY5Y, 24 h treatment) | Cellular toxicity (AK release and nuclear count, in words) (SH-SY5Y cells [1]; SH-SY5Y, 24 h treatment) | DQ Red BSA fluorescence intensity (in words) (SH-SY5Y cells [2]; SH-SY5Y, 24 h treatment) | DQ Red BSA spot count / active lysosome count (in words) (SH-SY5Y cells [2]; SH-SY5Y, 24 h treatment) | TFEB translocation (in words) (endogenous TFEB; SH-SY5Y, 24 h treatment) |
| --- | --- | --- | --- | --- | --- | --- | --- | --- | --- | --- | --- | --- |
| Cc1cccc2c(-c3ccncc3)c(-c3ccc(F)cc3)nn12.Cl [UNC10225316A] | 21.03 | 93.04 | 71.88 | 91.98 | 85.13 | TFE3 | 5.61 |  |  |  |  |  |
| Fc1cccc(COc2ccc(Nc3ncnc4nn5ccccc5c34)cc2Cl)c1 [UNC10225319A] | 21.26 | 110.07 | 134.45 | 139.92 | 77.83 | TFE3 + DQ | 3.13 |  |  |  |  |  |
| COc1ccc(-c2nc3n(c2-c2ccncc2)CCC3)cc1 [UNC10225334A] | 11.25 | 77.50 | 120.06 | 119.57 | 82.13 | DQ Only | 5.64 |  |  |  |  |  |
| c1ccc(-c2ccnc3[nH]ccc23)cc1 [UNC10225337A] | 8.32 | 289.20 | 103.32 | 96.87 | 120.86 | TOXIC | 6.67 |  |  |  |  |  |
| Cl.c1ccc(-c2ccc3c(Nc4ccc5[nH]ccc5c4)ccnc3c2)nc1 [UNC10225345A] | 38.32 | 157.00 | 44.66 | 42.49 | 89.15 | TOXIC | 8.10 |  |  |  |  |  |
| CC(C)(C)c1ccc2nccc(Nc3cccc(O)c3)c2c1 [UNC10225361A] | 26.88 | 101.00 | 97.55 | 54.23 | 71.73 | LYSO TOXIC | 10.76 |  |  |  |  |  |
| CC(=O)Nc1ccc(COc2ccc(Nc3ccnc4cc(-c5ccccn5)ccc34)cc2)cc1.Cl [UNC10225390A] | 50.24 | 71.40 | 42.39 | 42.67 | 89.28 | LYSO TOXIC | 19.19 |  |  |  |  |  |
| CN(C)CCOc1ccc(-c2cc(-c3ccc(Cl)c(O)c3)c(-c3ccncc3)[nH]2)cc1.Cl.Cl [UNC10225395A] | 46.41 | 117.96 | 71.39 | 40.46 | 86.70 | LYSO TOXIC | 15.65 |  |  |  |  |  |
| COc1ccc(C[C@@H](CN)NC(=O)c2cc(Br)c(-c3ccnc4[nH]ccc34)s2)cc1.Cl.Cl [UNC10225412A, reference compound] | 22.21 | 302.26 | 276.55 | 119.63 | 99.32 | TOXIC | 17.53 | strong TFE3 translocation; also recorded: translocation of TFEB and TFE3 | no toxicity; also recorded: without cellular toxicity | increase in DQ Red BSA fluorescence intensity | small reduction in puncta count | translocation of TFEB and TFE3 |
| O=C(c1ccc(-c2cc(-c3c[nH]nc3-c3ccccn3)ccn2)cc1)N1CCOCC1 [UNC10225421A] | 13.41 | 76.85 | 150.15 | 98.06 | 121.31 | DQ Only | 4.79 |  |  |  |  |  |
| FC(F)(F)c1ccc(-c2ncn(CCCN3CCOCC3)c2-c2ccncc2)cc1 [UNC10225425A] | 9.69 | 109.44 | 74.41 | 77.10 | 88.34 | LYSO TOXIC | 5.42 |  |  |  |  |  |
| CN(C)Cc1ccc(-c2ccc3c(Nc4ccc(Oc5ccccn5)cc4)ccnc3c2)o1 [UNC10225428A] | 34.27 | 81.74 | 85.61 | 47.88 | 92.33 | LYSO TOXIC | 28.26 |  |  |  |  |  |
| COc1ccc(-c2oc3ncnc(N)c3c2-c2ccc(OC)cc2)cc1 [UNC10225431A] | 9.25 | 79.67 | 144.39 | 120.26 | 51.87 | DQ Only | 4.87 |  |  |  |  |  |
| Cc1ccc(C(=O)Nc2ccc(Nc3ccnc4cc(-c5nccs5)ccc34)cc2O)cc1.Cl [UNC10225432A] | 56.52 | 74.29 | 38.26 | 36.88 | 89.90 | LYSO TOXIC | 8.56 |  |  |  |  |  |
| CCNCC(Cc1ccccc1)NC(=O)c1cc(Br)c(-c2ccnc3[nH]ccc23)s1.Cl.Cl (centres unmarked) [UNC10225436A] | 35.73 | 108.80 | 185.61 | 102.66 | 80.17 | DQ / TFEB/TFE3 | 20.72 |  |  |  |  |  |
